From patent publication US10487068B2, “Pyridazine derivatives as RORc modulators” (Genentech, Inc., priority 2015, dated 2019)
pIC50: −log10 of the molar value.

Each compound was assayed against T1, RORc ligand binding domain (Homo sapiens, UniProt P51449) (assay: In Vitro RORc Ligand Binding Assay). Conditions: RORc IC50, radioligand 25-[3H]hydroxycholesterol 6 nM; 0.6 ug/mL RORc receptor; 3 h at 25° C.
T1 sequence (P51449 269-508 limits assumed): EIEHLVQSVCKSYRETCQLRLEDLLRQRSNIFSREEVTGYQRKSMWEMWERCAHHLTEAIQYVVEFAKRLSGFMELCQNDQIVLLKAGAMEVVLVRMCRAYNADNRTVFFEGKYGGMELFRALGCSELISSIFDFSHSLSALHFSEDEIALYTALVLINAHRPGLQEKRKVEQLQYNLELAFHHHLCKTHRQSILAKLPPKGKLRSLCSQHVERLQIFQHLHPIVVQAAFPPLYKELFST

Row | Compound | pIC50
1 | CC1(C)[C@H]2CC[C@]1(c1ccnc(C(=O)NCCO)n1)c1nnc(-c3c(F)cccc3Cl)cc12 [Example 161] | 7.36
2 | CC1(C)[C@H]2CC[C@]1(c1cccc(S(=O)(=O)NCCO)n1)c1nnc(-c3c(F)cccc3F)cc12 [Example 162, 6-((5R,8S)-3-(2,6-difluorophenyl)-9,9-dimethyl-5,6,7,8-tetrahydro-5,8-methanocinnolin-8-yl)-N-(2-hydroxyethyl)pyridine-2-sulfonamide] | 7.64
3 | CC1(C)[C@H]2CC[C@]1(c1ccnc(NCc3nnc[nH]3)n1)c1nnc(-c3c(F)cccc3F)cc12 [Example 163] | 7.72
4 | CC1(C)[C@H]2CC[C@]1(c1cccc(NS(=O)(=O)C3COC3)n1)c1nnc(-c3c(F)cccc3F)cc12 [Example 164, N-(6-((5R,8S)-3-(2,6-difluorophenyl)-9,9-dimethyl-5,6,7,8-tetrahydro-5,8-methanocinnolin-8-yl)pyridin-2-yl)oxetane-3-sulfonamide] | 7.49
5 | CC1(C)[C@H]2CC[C@]1(c1cc(C#N)ncc1Br)c1nnc(-c3c(F)cccc3F)cc12 [Example 165, 5-bromo-4-((5R,8S)-3-(2,6-difluorophenyl)-9,9-dimethyl-5,6,7,8-tetrahydro-5,8-methanocinnolin-8-yl)picolinonitrile] | 7.60
6 | CC1(C)[C@H]2CC[C@]1(c1nc(C#N)ccc1Br)c1nnc(-c3c(F)cccc3F)cc12 [Example 166, 5-bromo-6-((5R,8S)-3-(2,6-difluorophenyl)-9,9-dimethyl-5,6,7,8-tetrahydro-5,8-methanocinnolin-8-yl)picolinonitrile] | 8.41
7 | Cc1nc(C#N)c(C#N)nc1[C@@]12CC[C@@H](c3cc(-c4c(F)cccc4F)nnc31)C2(C)C [Example 167, 5-((5R,8S)-3-(2,6-difluorophenyl)-9,9-dimethyl-5,6,7,8-tetrahydro-5,8-methanocinnolin-8-yl)-6-methylpyrazine-2,3-dicarbonitrile] | 6.26
8 | CC1(C)[C@H]2CC[C@]1(c1nc(C(F)(F)F)ncc1Br)c1nnc(-c3c(F)cccc3F)cc12 [Example 168] | 7.70
9 | COC(=O)c1cnc(C)c([C@@]23CC[C@@H](c4cc(-c5c(F)cccc5F)nnc42)C3(C)C)n1 [Example 169, methyl 6-((5R,8S)-3-(2,6-difluorophenyl)-9,9-dimethyl-5,6,7,8-tetrahydro-5,8-methanocinnolin-8-yl)-5-methylpyrazine-2-carboxylate] | 8.00
10 | Cc1ncc(C(=O)NCCO)nc1[C@@]12CC[C@@H](c3cc(-c4c(F)cccc4F)nnc31)C2(C)C [Example 170, 6-((5R,8S)-3-(2,6-difluorophenyl)-9,9-dimethyl-5,6,7,8-tetrahydro-5,8-methanocinnolin-8-yl)-N-(2-hydroxyethyl)-5-methylpyrazine-2-carboxamide] | 6.92
11 | Cc1nnc(-c2ccnc([C@@]34CC[C@@H](c5cc(-c6c(F)cccc6F)nnc53)C4(C)C)n2)[nH]1 [Example 171, (5R,8R)-3-(2,6-difluorophenyl)-9,9-dimethyl-8-(4-(5-methyl-4H-1,2,4-triazol-3-yl)pyrimidin-2-yl)-5,6,7,8-tetrahydro-5,8-methanocinnoline] | 7.44
12 | CC1(C)[C@H]2CC[C@]1(c1ccc(C#N)nc1)c1nnc(-c3c(F)cccc3Cl)cc12 [Example 172, 5-((5R,8S)-3-(2-chloro-6-fluorophenyl)-9,9-dimethyl-5,6,7,8-tetrahydro-5,8-methanocinnolin-8-yl)picolinonitrile] | 6.80
13 | CC1(C)[C@H]2CC[C@]1(c1cccc(C#N)n1)c1nnc(-c3c(F)cccc3Cl)cc12 [Example 173, 6-((5R,8S)-3-(2-chloro-6-fluorophenyl)-9,9-dimethyl-5,6,7,8-tetrahydro-5,8-methanocinnolin-8-yl)picolinonitrile] | 8.35
14 | CC1(C)[C@H]2CC[C@]1(c1cncc(-c3c[nH]c(=O)[nH]3)n1)c1nnc(-c3c(F)cccc3F)cc12 [Example 174, 4-(6-((5R,8S)-3-(2,6-difluorophenyl)-9,9-dimethyl-5,6,7,8-tetrahydro-5,8-methanocinnolin-8-yl)pyrazin-2-yl)-1H-imidazol-2(3H)-one] | 8.07
15 | Cc1ncc(-c2ccnc([C@@]34CC[C@@H](c5cc(-c6c(F)cccc6F)nnc53)C4(C)C)c2)o1 [Example 175] | 7.87
16 | COC(=O)c1nc(C)cc([C@@]23CC[C@@H](c4cc(-c5c(F)cccc5F)nnc42)C3(C)C)n1 [Example 176] | 7.89
17 | CC1(C)[C@H]2CC[C@]1(c1cc(N)ncc1Cl)c1nnc(-c3c(F)cccc3F)cc12 [Example 177, 5-chloro-4-((5R,8S)-3-(2,6-difluorophenyl)-9,9-dimethyl-5,6,7,8-tetrahydro-5,8-methanocinnolin-8-yl)pyridin-2-amine] | 7.61
18 | Cc1nnc(-c2nccc([C@@]34CC[C@@H](c5cc(-c6c(F)cccc6F)nnc53)C4(C)C)n2)[nH]1 [Example 178] | 7.56
19 | CC1(C)[C@H]2CC[C@]1(c1cccc(-c3n[nH]c(=O)[nH]3)n1)c1nnc(-c3c(F)cccc3F)cc12 [Example 179, 3-(6-((5R,8S)-3-(2,6-difluorophenyl)-9,9-dimethyl-5,6,7,8-tetrahydro-5,8-methanocinnolin-8-yl)pyridin-2-yl)-1H-1,2,4-triazol-5(4H)-one] | 7.82

Row | Compound | pIC50
20 | CC1(C)[C@H]2CC[C@]1(c1ccnc(-c3nnc(CO)[nH]3)n1)c1nnc(-c3c(F)cccc3F)cc12 [Example 180] | 7.55
21 | CC1(C)[C@H]2CC[C@]1(c1ccnc(-n3ccnc3)n1)c1nnc(-c3c(F)cccc3F)cc12 [Example 181] | 8.43
22 | CC1(C)[C@H]2CC[C@]1(c1ccnc(-n3cncn3)n1)c1nnc(-c3c(F)cccc3F)cc12 [Example 182] | 8.38
23 | CNS(=O)(=O)c1nccc([C@@]23CC[C@@H](c4cc(-c5c(F)cccc5F)nnc42)C3(C)C)n1 [Example 183] | 7.81
24 | CC1(C)[C@H]2CC[C@]1(c1cncc(-c3cnco3)n1)c1nnc(-c3c(F)cccc3F)cc12 [Example 184, 5-(6-((5R,8S)-3-(2,6-difluorophenyl)-9,9-dimethyl-5,6,7,8-tetrahydro-5,8-methanocinnolin-8-yl)pyrazin-2-yl)oxazole] | 8.48
25 | CC1(C)[C@H]2CC[C@]1(c1cncc(=O)[nH]1)c1nnc(-c3c(F)cccc3F)cc12 [Example 185, 6-((5R,8S)-3-(2,6-difluorophenyl)-9,9-dimethyl-5,6,7,8-tetrahydro-5,8-methanocinnolin-8-yl)pyrazin-2(1H)-one] | 7.52
26 | COC(=O)c1ncc(Br)c([C@@]23CC[C@@H](c4cc(-c5c(F)cccc5F)nnc42)C3(C)C)n1 [Example 187] | 7.58
27 | CC1(C)[C@H]2CC[C@]1(c1ccnc(-n3ccnn3)n1)c1nnc(-c3c(F)cccc3F)cc12 [Example 188] | 8.12
28 | CC1(C)[C@H]2CC[C@]1(c1ccnc(-n3nccn3)n1)c1nnc(-c3c(F)cccc3F)cc12 [Example 189] | 7.83
29 | CC1(C)[C@H]2CC[C@]1(c1ccnc(S(=O)(=O)NCCO)n1)c1nnc(-c3c(F)cccc3F)cc12 [Example 190] | 7.87
30 | CC1(C)[C@H]2CC[C@]1(c1cccc(S(=O)(=O)NCC3(O)COC3)n1)c1nnc(-c3c(F)cccc3F)cc12 [Example 191, 6-((5R,8S)-3-(2,6-difluorophenyl)-9,9-dimethyl-5,6,7,8-tetrahydro-5,8-methanocinnolin-8-yl)-N-((3-hydroxyoxetan-3-yl)methyl)pyridine-2-sulfonamide] | 7.61
31 | CC1(C)[C@H]2CC[C@]1(c1ccnc(C#N)c1C#N)c1nnc(-c3c(F)cccc3F)cc12 [Example 192, 4-((5R,8S)-3-(2,6-difluorophenyl)-9,9-dimethyl-5,6,7,8-tetrahydro-5,8-methanocinnolin-8-yl)pyridine-2,3-dicarbonitrile] | 6.91
32 | CC1(C)[C@H]2CC[C@]1(c1nc(C(=O)NCCO)ncc1Br)c1nnc(-c3c(F)cccc3F)cc12 [Example 193] | 7.24
33 | CC1(C)[C@H]2CC[C@]1(c1cncc(C(=O)NCCO)c1)c1nnc(-c3c(F)cccc3F)cc12 [Example 194, 5-((5R,8S)-3-(2,6-difluorophenyl)-9,9-dimethyl-5,6,7,8-tetrahydro-5,8-methanocinnolin-8-yl)-N-(2-hydroxyethyl)nicotinamide] | 7.62
34 | CC1(C)[C@H]2CC[C@]1(c1cncc(-n3cncn3)n1)c1nnc(-c3c(F)cccc3F)cc12 [Example 195] | 8.20
35 | CC(C)(O)c1coc(-c2cncc([C@@]34CC[C@@H](c5cc(-c6c(F)cccc6F)nnc53)C4(C)C)n2)n1 [Example 196, 2-(2-(6-((5R,8S)-3-(2,6-difluorophenyl)-9,9-diimethyl-5,6,7,8-tetrahydro-5,8-methanocinnolin-8-yl)pyrazin-2-yl)oxazol-4-yl)propan-2-ol] | 8.19
36 | CC1(C)[C@H]2CC[C@]1(c1cncc(C(=O)N[C@H]3C[C@](C)(O)C3)n1)c1nnc(-c3c(F)cccc3F)cc12 [Example 197, 6-((5R,8S)-3-(2,6-difluorophenyl)-9,9-dimethyl-5,6,7,8-tetrahydro-5,8-methanocinnolin-8-yl)-N-((1r,3S)-3-hydroxy-3-methylcyclobutyl)pyrazine-2-carboxamide] | 7.85
37 | CC(C)(O)CNS(=O)(=O)c1cccc([C@@]23CC[C@@H](c4cc(-c5c(F)cccc5F)nnc42)C3(C)C)n1 [Example 198, 6-((5R,8S)-3-(2,6-difluorophenyl)-9,9-dimethyl-5,6,7,8-tetrahydro-5,8-methanocinnolin-8-yl)-N-(2-hydroxy-2-methylpropyl)pyridine-2-sulfonamide] | 7.58
38 | CC1(C)[C@H]2CC[C@]1(c1cccc(S(=O)(=O)NC3(CO)COC3)n1)c1nnc(-c3c(F)cccc3F)cc12 [Example 199, 6-((5R,8S)-3-(2,6-difluorophenyl)-9,9-dimethyl-5,6,7,8-tetrahydro-5,8-methanocinnolin-8-yl)-N-(3-(hydroxymethyl)oxetan-3-yl)pyridine-2-sulfonamide] | 8.03
